Measured values as given in patent US20080090812A1 (priority 2004, published 2008).
“Also recorded” adds a separate entry of the source. Where a SMILES comes first, the peptide text is derived from it. The star is where a group is joined. Cbz = O=C(OCc1ccccc1)*; CH2F = FC*

Key:
GADD45 = test: Intracellular staining of GADD45 expression in B-CLL cells by flow cytometry; format: cell-based, human; conditions: B-CLL cells versus no-drug control (FIG. 4b)
Protocol: (§1) B-CLL cells were cultured for 4h and 48h in the presence or absence of one of the drugs under investigation. Cells were harvested by centrifugation and incubated with 10 μL of anti-CD19-RPE-cy5 conjugated antibody. Subsequently the cells were washed with phosphate buffered saline (PBS) at pH 7.2 and then prepared for intracellular staining of phosphorylated p53 and GADD45 (Santa Cruz Biotechnology, Santa Cruz, Calif.) using a commercially available kit (DAKO, Ely, UK). A FITC-labeled secondary antibody was added to the cells (DAKO) and after a final washing step the cells were resuspended in 0.5 mL of 1% paraformaldehyde prior to flow cytometric analysis using a FACScan flow cytometer (Becton Dickinson, Calif.).
(§2) Phosphorylation of p53 and expression of GADD45 were measured in control B-CLL cell samples with no cytotoxic agent added and in B-CLL cell samples in the presence of either chloambucil or SJG-136.

phosphorylated p53 = test: Intracellular staining of phosphorylated p53 in B-CLL cells by flow cytometry; format: cell-based, human; conditions: 10 μM chlorambucil or 25 nM SJG-136, versus no-drug control (FIG. 4a)
Protocol: as §1, §2

B-CLL cells [1] = test: Flow cytometry-based in vitro apoptosis assay (FSC/SSC, Annexin V) in primary B-CLL cells; format: cell-based, human; conditions: for mean LD50 in previously treated versus untreated patient sub-set: expanded cohort of 46 patients (FIG. 10)
calf thymus DNA = conditions: after incubation for 18 hours at 37° C.; cited from earlier work
B-CLL cells [2] = test: Flow cytometry-based in vitro apoptosis assay (FSC/SSC, Annexin V) in primary B-CLL cells; format: cell-based, human; conditions: for mean LD50 in previously treated versus untreated patient sub-set: 34 patient cohort (FIG. 5); for degree of apoptosis in the cell culture: B-CLL cultures of the p53/GADD45 experiment (FIG. 4b)
Description: Peripheral blood samples from 34 patients with B-CLL (20 untreated and 14 treated) and 10 age-matched normal controls were obtained with the patients' informed consent. B-CLL was defined by clinical criteria as well as cellular morphology and the co-expression of CD19 and CD5 in lymphocytes simultaneously displaying restriction of light-chain rearrangement. Staging was based on the Binet classification system.^14 None of the previously treated patients had received therapy for at least three months prior to this study.
Freshly isolated peripheral blood lymphocytes (1×10^6/ml) were cultured in Eagles medium (Invitrogen, Paisley, UK) supplemented with 100 units/ml penicillin, 100 μg/ml streptomycin and 10% fetal calf serum. Lymphocytes were incubated at 37° C. in a humidified 5% carbon dioxide atmosphere in the presence of SJG-136 (10^−10−10^−7 M). […]
In this study changes in forward light scatter (FSC) and side light scatter (SSC) characteristics were used to quantify apoptotic and viable cell populations as described previously.^16-18 Typically, lymphocytes show a reduction in FSC (a function of cytoplasmic shrinkage) and an increase in SSC (due to increased granularity) when they undergo apoptosis.^19 The quantitation of apoptosis using an FSC/SSC gating strategy in conjunction with back gating of R-phycoerythrin cyanine 5 (RPE-cy5) labeled CD19+ (Dako) or R-phycoerythrin labeled CD3+ (Dako) lymphocytes allowed simultaneous acquisition of data in viable and apoptotic B-lymphocyte and T-lymphocyte sub-populations, respectively. All LD50 and LD90 values (the concentration of the relevant chemotheraputic agent required to kill 50% and 90% of cells respectively) were derived from the dose-response curves. Duplicate samples were assessed using fluorescein (FITC)-labeled Annexin V to confirm the presence of apoptotic cells in the cell cultures and to validate the FSC/SSC quantitation method.^20
The data obtained in these experiments were evaluated using the equal variance and paired Student's t-test, and correlation coefficients were calculated from least squares linear regression plots. LD50 values were calculated from line of best-fit analysis of the dose response curves. All statistical analyses were performed using Graphpad Prism 3.0 software (Graphpad Software Inc., San Diego, Calif.).
A flow cytometry-based in vitro apoptosis detection assay was used to determine whether SJG-136 could induce apoptotic cell death in B-CLL cells. The characteristic changes in the forward and side light scatter resulting from cellular shrinkage described previously were used to define apoptosis.^19 In addition, Annexin V labeling was also performed in order to verify the light scatter data.

caspase-3 = test: SJG-136 induced caspase-3 activation in B-CLL cells (PhiPhiLux G1D2 substrate, flow cytometry); format: cell-based, human; conditions: inhibitor final concentration 2 μM, SJG-136-treated B-CLL cell cultures
Protocol: B-CLL cells were incubated at 37° C. in a humidified 5% carbon dioxide atmosphere in the presence of SJG-136 (10^−10−10^−7 M) or fludarabine (10^−7″10^−5 M) for 12, 24 and 48 h. Cells were then harvested by centrifugation and labeled with CD19 RPE-cy5 conjugated antibody. Subsequently the cells were incubated for 1 h at 37° C. in the presence of the PhiPhiLux™ G1D2 substrate (Calbiochem, Nottingham, UK). The substrate contains two fluorophores separated by a quenching linker sequence that is cleaved by active caspase-3. Once cleaved the resulting products fluoresce green and can be quantified using flow cytometry. In additional experiments the caspase-8 inhibitor, Z-IETD-FMK, or the caspase-9 inhibitor, Z-LEHD-FMK, (Cambridge Bioscience, Cambridge, UK) were added to SJG-136-treated cell cultures (final concentration 2 μM) in order to determine whether either of these inhibitors was able to abrogate the apoptotic effects of SJG-136 in B-CLL cells.

[3] = expanded cohort, 46 B-CLL patient samples
[4] = 34 B-CLL patient samples, 48 h exposure

C=C1C[C@H]2C=Nc3cc(OCCCOc4cc5c(cc4OC)C(=O)N4CC(=C)C[C@H]4C=N5)c(OC)cc3C(=O)N2C1 [SJG-136]
GADD45 expression (GADD45): only slightly higher than in the control experiment
phosphorylated p53 (p-p53) (phosphorylated p53): none of the B-CLL cells (n=9) treated with SJG-136 phosphorylated p53
patient samples in which apoptosis was induced (B-CLL cells [1]; 46 patient cohort): all 46 patient samples
mean LD50 in previously treated versus untreated patient sub-set (B-CLL cells [1]): no effect
mean LD50 value (±SD) (B-CLL cells [1]; [3]): 0.19 nM
mean LD90 value (±SD) (B-CLL cells [1]; [3]): 38.63 nM
increase in the thermal denaturation of calf thymus DNA (calf thymus DNA): 33.6 °C
mean LD50 value (±SD) (B-CLL cells [2]; [4]): 9.06 nM
mean LD90 value (±SD) (B-CLL cells [2]; [4]): 43.09 nM
patient samples in which apoptosis was induced (B-CLL cells [2]; 34 patient cohort): all 34 patient samples
mean LD50 in previously treated versus untreated patient sub-set (B-CLL cells [2]): no effect
degree of apoptosis in the cell culture (B-CLL cells [2]): greater degree of apoptosis than either the control experiment or the chlorambucil experiment

CC[C@H](C)[C@H](NC(=O)OCc1ccccc1)C(=O)N[C@@H](CCC(=O)OC)C(=O)N[C@H](C(=O)N[C@@H](CC(=O)OC)C(=O)CF)[C@@H](C)O [Z-IETD.FMK, Z-IETD-FMK] (Cbz-IE(OMe)TD(OMe)-CH2F)
abrogation of SJG-136-induced caspase-3 activation by added caspase inhibitor (caspase-3): not

COC(=O)CC[C@H](NC(=O)[C@H](CC(C)C)NC(=O)OCc1ccccc1)C(=O)N[C@@H](Cc1cnc[nH]1)C(=O)N[C@@H](CC(=O)OC)C(=O)CF [Z-LEHD-FMK] (Cbz-LE(OMe)HD(OMe)-CH2F)
abrogation of SJG-136-induced caspase-3 activation by added caspase inhibitor (caspase-3): partially abrogated

O=C(O)CCCc1ccc(N(CCCl)CCCl)cc1 [chlorambucil]
GADD45 expression (GADD45): much higher; also recorded: marked increase in GADD45 expression
phosphorylated p53 (p-p53) (phosphorylated p53): an increase in phosphorylated p53
degree of apoptosis in the cell culture (B-CLL cells [2]): significantly increased over the control experiment

Nc1nc(F)nc2c1ncn2[C@@H]1O[C@H](CO)[C@@H](O)[C@@H]1O [fludarabine, reference compound]
mean LD50 in previously treated versus untreated patient sub-set (B-CLL cells [1]): significantly higher mean LD50 value
mean LD50 in previously treated versus untreated patient sub-set (B-CLL cells [2]): significantly higher mean LD50 value
in vitro sensitivity of samples from two treated patients with known p53 mutation (B-CLL cells [2]; compared with remaining patient samples): high degree of in vitro resistance
